Conditions: fresh human skin with dermis, control/VAP gel and RAMEB/VAP gel, contact time 24 hours
Protocol: The study is carried out using the Franz cells characterized above.
After a contact time of 24 hours, the excess gel on the surface of the skin is washed off with the aid of cotton buds.
The cotton buds together with the upper part of the cell are immersed in 10 ml of isopropanol and ultrasonicated for 15 minutes and then stirred for 2 hours.
The solutions are diluted to 1/10 and filtered on a 0.2 μm filter before assaying.
The stratum corneum is collected by 7 successive strippings (pressure 300 g/cm^2, duration 12 s). The VAP is extracted by solubilization in 2 ml of methanol overnight at 4° C., followed by stirring for 2 hours and finally filtration on a 0.2 μm filter before assaying.
With the stratum corneum removed, the epidermis is separated from the dermis with the aid of a scalpel.
The VAP is extracted from the epidermis by solubilization of the latter in 1 ml of methanol overnight at 4° C., followed by stirring for 2 hours and finally filtration on a 0.2 μm filter before assaying.
The VAP assays are performed by HPLC.

For CCC(=O)OC/C=C(C)/C=C/C=C(C)/C=C/C1=C(C)CCCC1(C)C [VAP, vitamin A propionate], the “VAP detected in the reception liquid” value was “No trace”.

Reference: patent publication US20050085444A1, “Cosmetic or dermatological use of vitamin a or the esters thereof in combination with a partly methylated beta-cyclodextrin” (priority 2002, published 2005)
